Data as given in patent US8993565B2, “(6-oxo-1,6-dihydropyrimidin-2-yl)amide derivatives, preparation thereof and pharmaceutical use thereof as AKT(PKB) phosphorylation inhibitors” (Sanofi, priority 2009, dated 2015).

Tested on: AKT protein phosphorylated on serine 473 (P-AKT-S473)
Assay: Study of pAKT expression in PC3 human prostate carcinoma cells measured by the MSD Multi-spot Biomarker Detection technique (Test B)
Format: cell-based
Details: PC-3, inhibition of AKT phosphorylation (P-AKT-S473), MSD sandwich immunoassay, 1 to 2 h incubation, absolute IC50, mean of 2 experiments
Procedure: The inhibitory activity of the molecules on AKT phosphorylation is measured either by western blotting using the technique described below, or by the MSD Multi-spot Biomarker detection technique from Meso Scale Discovery also described below.
Study of pAKT Expression in PC3 Human Prostate Carcinoma Cells Measured by the MSD Multi-Spot Biomarker Detection Technique from Meso Scale Discovery (Test B):
The primary antibody specific for P-AKT-S473 (Kit #K151CAD) is coated on to an electrode in each well of the 96-well plates of the MSD, kit: after the addition of a protein lysate to each well, the signal is visualised by adding a secondary detection antibody labelled with an electrochemoluminescent compound. The procedure followed is that described in the kit.
On day 2, the cells are incubated in the presence or absence of the test products for 1 to 2 h at 37° C. in the presence of 5% of CO2. The molecules, diluted in dimethyl sulphoxide (DMSO Sigma #D2650), are added from a 20-times concentrated stock solution, the final percentage of DMSO being 0.1%. The molecules are tested either at a single concentration of less than or equal to 10 μM, or at increasing concentrations in a range that can extend from less than 1 nM to 10 μM.
After this incubation, the cells are lysed for the preparation of the proteins. […] At this stage, the plates containing the lysates can be stored at −20° C. or at −80° C.
The wells of the 96-well plates of the MSD kit are saturated for 1 h at ambient temperature with the blocking solution of the MSD kit. Four washes are carried out with 150 μl of Tris Wash Buffer of the MSD kit. The lysates previously prepared are transferred into the 96-well multi-spot plates of the MSD kit and incubated for 1 h at ambient temperature, with shaking. Four washes are carried out with 150 μl of Tris Wash Buffer of the MSD kit. 25 μl of the MSD sulfo-tag detection antibody solution are added to the wells and incubated for 1 h at ambient temperature, with shaking. Four washes are carried out with 150 μl of Tris Wash Buffer of the MSD kit. 150 μl of Read Buffer of the MSD kit are added to the wells and the plates are read immediately on the S12400 instrument from Meso Scale Discovery.
The instrument measures a signal for each well. Wells without cells and containing the lysis buffer serve to determine the background noise that will be subtracted from all the measurements (min). The wells containing cells in the absence of product and in the presence of 0.1% DMSO are considered to be the 100% signal (max). The percentage inhibition is calculated for each concentration of test product according to the following formula: (1-((test-min)(max-min)))×100.
2 independent experiments make it possible to calculate the mean of the IC50 values.

Compound | IC50
O=C(Cc1nc(N2CCOCC2)cc(=O)[nH]1)Nc1ccccc1OCCN1CCCCC1 [Example 107, 2-[4-(morpholin-4-yl)-6-oxo-1,6-dihydropyrimidin-2-yl]-N-{2-[2-(piperidin-1-yl)ethoxy]phenyl}acetamide] | 24 nM
CC1CN(C(=O)Cc2nc(N3CCOCC3)cc(=O)[nH]2)c2ccccc21 (centres unmarked) [Example 101, 2-[2-(3-methyl-2,3-dihydro-1H-indol-1-yl)-2-oxoethyl]-6-(morpholin-4-yl)pyrimidin-4(3H)-one] | 13 nM
O=C(Cc1nc(N2CCOCC2)cc(=O)[nH]1)Nc1ccccc1OCCN1CCCC1 [Example 112, 2-[4-(morpholin-4-yl)-6-oxo-1,6-dihydropyrimidin-2-yl]l-N-{2-[2-(pyrrolidin-1-yl)ethoxy]phenyl}acetamide] | 23 nM
O=C(Nc1ccc(F)cc1)C(F)(F)c1nc(N2CCOCC2)cc(=O)[nH]1 [Example 77, 2,2-difluoro-N-(4-fluorophenyl)-2-[4-(morpholin-4-yl)-6-oxo-1,6-dihydropyrimidin-2-yl]acetamide] | 698 nM
COc1cccc2c1CCN2C(=O)Cc1nc(N2CCOCC2)cc(=O)[nH]1 [Example 141, 2-[2-(4-Methoxy-2,3-dihydroindol-1-yl)-2-oxoethyl]-6-morpholin-4-yl-3H-pyrimidin-4-one] | 60 nM
CC1(C)CN(C(=O)Cc2nc(N3CCOCC3)cc(=O)[nH]2)c2ccccc21 [Example 154, 2-[2-(3,3-dimethyl-2,3-dihydro-1H-indol-1-yl)-2-oxoethyl]-6-(morpholin-4-yl)pyrimidin-4(3H)-one] | 28 nM
C[C@H]1Cc2ccccc2N1C(=O)Cc1nc(N2CCOCC2)cc(=O)[nH]1 [Example 117, 2-{2-[(2S)-2-methyl-2,3-dihydro-1H-indol-1-yl]-2-oxoethyl}-6-(morpholin-4-yl)pyrimidin-4(3 H)-one] | 19 nM
O=C(Cc1nc(N2CCOCC2)cc(=O)[nH]1)N1CCc2c(Cl)cccc21 [Example 89, 2-[2-(4-chloro-2,3-dihydro-1 H-indol-1-yl)-2-oxoethyl]-6-(morpholin-4-yl)pyrimidin-4(3 H)-one] | 3 nM
NC(=O)C1Cc2ccccc2N1C(=O)Cc1nc(N2CCOCC2)cc(=O)[nH]1 (centres unmarked) [Example 122, 1-{[4-(morpholin-4-yl)-6-oxo-1,6-dihydropyrimidin-2-yl]acetyl}-2,3-dihydro-1H-indole-2-carboxamide] | 503 nM
C[C@@H]1Cc2ccccc2N1C(=O)Cc1nc(N2CCOCC2)cc(=O)[nH]1 [Example 118, 2-{2-[(2R)-2-methyl-2,3-dihydro-1H-indol-1-yl]-2-oxoethyl}-6-(morpholin-4-yl)pyrimidin-4(3H)-one] | 12 nM
O=C(Cc1nc(N2CCOCC2)cc(=O)[nH]1)N1CCc2cc(Cl)ccc21 [Example 134, 2-[2-(5-Chloro-2,3-dihydroindol-1-yl)-2-oxoethyl]-6-morpholin-4-yl-3H-pyrimidin-4-one] | 124 nM
COCCOc1ccccc1NC(=O)Cc1nc(N2CCOCC2)cc(=O)[nH]1 [Example 108, N-[2-(2-methoxyethoxy)phenyl]-2-[4-(morpholin-4-yl)-6-oxo-1,6-dihydropyrimidin-2-yl]acetamide] | 56 nM
CC1Cc2ccccc2N1C(=O)Cc1nc(N2CCOCC2)cc(=O)[nH]1 (centres unmarked) [Example 96, 2-[2-(2-methyl-2,3-dihydro-1H-indol-1-yl)-2-oxoethyl]-6-(morpholin-4-yl)pyrimidin-4(3H)-one] | 6 nM
O=C(Cc1nc(N2CCOCC2)cc(=O)[nH]1)N1Cc2ccccc2C1 [Example 129, 2-[2-(1,3-dihydro-2H-isoindol-2-yl)-2-oxoethyl]-6-(morpholin-4-yl)pyrimidin-4(3H)-one] | 1000 nM
O=C(Cc1nc(N2CCOCC2)cc(=O)[nH]1)N1CCc2c(Br)cccc21 [Example 135, 2-[2-(4-Bromo-2,3-dihydroindol-1-yl)-2-oxoethyl]-6-morpholin-4-yl-3H-pyrimidin-4-one] | 1 nM
O=C(Cc1nc(N2CCOCC2)cc(=O)[nH]1)Nc1cccc([N+](=O)[O-])c1O [Example 151, N-(2-hydroxy-3-nitrophenyl)-2-[4-(morpholin-4-yl)-6-oxo-1,6-dihydropyrimidin-2-yl]acetamide] | 29 nM
C[C@@H]1CN(C(=O)Cc2nc(N3CCOCC3)cc(=O)[nH]2)c2ccccc21 [Example 125, 2-{2-[(3S)-3-methyl-2,3-dihydro-1H-indol-1-yl]-2-oxoethyl}-6-(morpholin-4-yl)pyrimidin-4(3 H)-one] | 16 nM

Second part, the molecule after the results:

IC50 | Compound
247 nM | N#Cc1cc(NC(=O)Cc2nc(N3CCOCC3)cc(=O)[nH]2)ccc1F [Example 24, N-(3-cyano-4-fluorophenyl)-2-[4-(morpholin-4-yl)-6-oxo-1,6-dihydropyrimidin-2-yl]acetamide]
290 nM | O=C(Cc1nc(N2CCOCC2)cc(=O)[nH]1)Nc1cc(F)c(F)cc1F [Example 60, 2-[4-(morpholin-4-yl)-6-oxo-1,6-dihydropyrimidin-2-yl]-N-(2,4,5-trifluorophenyl)acetamide]
340 nM | Cn1c(CC(=O)Nc2ccccc2)nc(N2CCOCC2)cc1=O [Example 85, 2-[1-methyl-4-(morpholin-4-yl)-6-oxo-1,6-dihydropyrimidin-2-yl]-N-phenylacetamide]
145 nM | CN(C)c1cccc(NC(=O)Cc2nc(N3CCOCC3)cc(=O)[nH]2)c1 [Example 4, N-[3-(dimethylamino)phenyl]-2-[4-(morpholin-4-yl)-6-oxo-1,6-dihydropyrimidin-2-yl]acetamide]
115 nM | COc1cc(NC(=O)Cc2nc(N3CCOCC3)cc(=O)n2C)ccc1F [Example 83, N-(4-fluoro-3-methoxyphenyl)-2-[1-methyl-4-(morpholin-4-yl)-6-oxo-1,6-dihydropyrimidin-2-yl]acetamide]
666 nM | Cn1ccc2c(NC(=O)Cc3nc(N4CCOCC4)cc(=O)[nH]3)cccc21 [Example 99, N-(1-methyl-1H-indol-4-yl)-2-[4-(morpholin-4-yl)-6-oxo-1,6-dihydropyrimidin-2-yl]acetamide]
94 nM | Cn1c(CC(=O)Nc2ccc(F)c(Br)c2)nc(N2CCOCC2)cc1=O [Example 80, N-(3-bromo-4-fluorophenyl)-2-[1-methyl-4-(morpholin-4-yl)-6-oxo-1,6-dihydropyrimidin-2-yl]acetamide]
42 nM | CC(C)(C)c1cccc(NC(=O)Cc2nc(N3CCOCC3)cc(=O)[nH]2)c1 [Example 19, N-[3-(2-methylpropan-2-yl)phenyl]-2-[4-(morpholin-4-yl)-6-oxo-1,6-dihydropyrimidin-2-yl]acetamide]
69 nM | Cn1c(CC(=O)N2CCc3c2ccc(F)c3F)nc(N2CCOCC2)cc1=O [Example 128, 2-[2-(4,5-difluoro-2,3-dihydro-1H-indol-1-yl)-2-oxoethyl]-3-methyl-6-(morpholin-4-yl)pyrimidin-4(3H)-one]
1030 nM | O=C(Cc1nc(N2CCOCC2)cc(=O)[nH]1)Nc1cccnc1 [Example 30, 2-[4-(morpholin-4-yl)-6-oxo-1,6-dihydropyrimidin-2-yl]-N-(pyridin-3-yl)acetamide]
129 nM | Cn1c(CC(=O)Nc2ccc(F)c(F)c2)nc(N2CCOCC2)cc1=O [Example 78, N-(3,4-difluorophenyl)-2-[1-methyl-4-(morpholin-4-yl)-6-oxo-1,6-dihydropyrimidin-2-yl]acetamide]
51 nM | O=C(Cc1nc(N2CCOCC2)cc(=O)[nH]1)Nc1ccc(F)cc1F [Example 5, N-(2,4-difluorophenyl)-2-[4-(morpholin-4-yl)-6-oxo-1,6-dihydropyrimidin-2-yl]acetamide]
63 nM | Cn1c(CC(=O)Nc2ccc(F)c(I)c2)nc(N2CCOCC2)cc1=O [Example 93, N-(3-iodo-4-fluorophenyl)-2-[1-methyl-4-(morpholin-4-yl)-6-oxo-1,6-dihydropyrimidin-2-yl]acetamide]
4 nM | O=C(Cc1nc(N2CCOCC2)cc(=O)[nH]1)N1CCc2cc(F)c(F)cc21 [Example 147, 2-[2-(5,6-Difluoro-2,3-dihydroindol-1-yl)-2-oxoethyl]-6-morpholin-4-yl-3H-pyrimidin-4-one]
432 nM | COC(=O)c1cc(F)ccc1NC(=O)Cc1nc(N2CCOCC2)cc(=O)[nH]1 [Example 144, Methyl 5-fluoro-2-({[4-(morpholin-4-yl)-6-oxo-1,6-dihydropyrimidin-2-yl]acetyl}amino)benzoate]
